Among the data in ChEMBL document CHEMBL5463722, “Data for DCP probe BI-5524” (2023) are residual activity, IC50 and activity values, retold here.

The structures appear in SMILES notation.

In data set [1] the target is B2 bradykinin receptor (Homo sapiens) (UniProt P30411). The data set can be described thus: Activity against B2/HUM in the Eurofins SafetyScreen44 (BI) by Radioactive Assay (Old_Cerep_8).
Data set [2] concerns the target D(3) dopamine receptor (Homo sapiens) (UniProt P35462). The data set can be described thus: D3 Eurofins-Cerep binding assay. Particulars: Compound concentration 10.0 uM; call rule not given here.
The target in data set [3] is Nociceptin receptor (Homo sapiens) (UniProt P41146). The data set can be described thus: Activity against ORL1/H in the Eurofins SafetyScreen44 (BI) by Radioactive Assay (Old_Cerep_28). The following applies: Compound concentration 10.0 uM.
The target of data set [4] is Bombesin receptor (Rattus norvegicus) (UniProt P52500+P24053+Q8K418). The experiment in a line: Activity against BOMBESIN/NS in the Eurofins SafetyScreen44 (BI) by Radioactive Assay (Old_Cerep_9). Type of data set: protein assay.
Chain of Bombesin receptor (Rattus norvegicus) (P24053 whole entry, looked up): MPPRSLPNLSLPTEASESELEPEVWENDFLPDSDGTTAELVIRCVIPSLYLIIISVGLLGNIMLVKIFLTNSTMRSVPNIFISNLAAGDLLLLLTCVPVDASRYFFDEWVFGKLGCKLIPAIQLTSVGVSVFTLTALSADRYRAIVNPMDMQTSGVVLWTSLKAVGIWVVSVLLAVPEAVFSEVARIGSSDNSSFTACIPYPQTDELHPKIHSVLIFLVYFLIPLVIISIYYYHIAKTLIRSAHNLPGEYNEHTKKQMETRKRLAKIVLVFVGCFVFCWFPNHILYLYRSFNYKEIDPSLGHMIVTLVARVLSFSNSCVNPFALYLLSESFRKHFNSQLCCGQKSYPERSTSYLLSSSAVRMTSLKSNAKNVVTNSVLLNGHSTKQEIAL
Chain of Bombesin receptor (Rattus norvegicus) (P52500 whole entry, looked up): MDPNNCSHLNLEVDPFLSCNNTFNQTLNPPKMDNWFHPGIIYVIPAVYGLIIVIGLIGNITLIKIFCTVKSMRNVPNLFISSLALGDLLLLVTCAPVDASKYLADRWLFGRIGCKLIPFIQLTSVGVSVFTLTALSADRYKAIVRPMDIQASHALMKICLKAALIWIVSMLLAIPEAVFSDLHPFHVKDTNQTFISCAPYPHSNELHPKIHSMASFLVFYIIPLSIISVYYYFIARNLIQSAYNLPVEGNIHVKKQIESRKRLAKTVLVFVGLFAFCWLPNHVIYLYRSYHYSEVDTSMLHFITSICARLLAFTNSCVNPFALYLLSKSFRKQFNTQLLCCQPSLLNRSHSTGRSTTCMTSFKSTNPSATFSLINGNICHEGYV
Chain of Bombesin receptor (Rattus norvegicus) (Q8K418 whole entry, looked up): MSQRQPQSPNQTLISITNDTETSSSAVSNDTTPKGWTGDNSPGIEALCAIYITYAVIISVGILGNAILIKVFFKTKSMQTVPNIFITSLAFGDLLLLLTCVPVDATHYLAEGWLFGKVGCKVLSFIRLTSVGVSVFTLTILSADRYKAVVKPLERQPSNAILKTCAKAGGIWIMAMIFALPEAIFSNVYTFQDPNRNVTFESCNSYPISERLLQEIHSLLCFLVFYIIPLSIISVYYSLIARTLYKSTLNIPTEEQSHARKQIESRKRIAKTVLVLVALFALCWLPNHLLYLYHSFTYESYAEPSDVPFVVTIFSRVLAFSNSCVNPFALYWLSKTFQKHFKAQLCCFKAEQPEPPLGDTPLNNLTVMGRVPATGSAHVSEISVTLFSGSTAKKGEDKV
The target of data set [5] is GABA-A receptor; anion channel (Rattus norvegicus) (UniProt O09028+P15431+P18506+P18508+P19969+P20236+P23574+P23576+P28471+P28473+P30191+P62813+P63079+P63138+Q91ZM7+Q9ES14). The experiment in a line: Activity against BZD/PERIPH/R in the Eurofins SafetyScreen44 (BI) by Radioactive Assay (Old_Cerep_10). In kind it is protein-complex assay.
Data set [6] deals with 5-hydroxytryptamine receptor 6 (Homo sapiens) (UniProt P50406). The experiment in a line: Activity against 5HT6/H in the Eurofins SafetyScreen44 (BI) by Others (Old_Cerep_3). Particulars: Compound concentration 10.0 uM.
The target of data set [7] is Somatostatin receptor type 5 (Mus musculus) (UniProt O08858). The data set can be described thus: Activity against SOMATOS/M in the Eurofins SafetyScreen44 (BI) by Radioactive Assay (Old_Cerep_36). Particulars: Compound concentration 10.0 uM.
Data set [8] deals with Prostacyclin receptor (Homo sapiens) (UniProt P43119). The experiment in a line: Activity against PGI2/H in the Eurofins SafetyScreen44 (BI) by Radioactive Assay (Old_Cerep_34). Particulars: Compound concentration 10.0 uM.
Chain of Prostacyclin receptor (Homo sapiens) (P43119 whole entry): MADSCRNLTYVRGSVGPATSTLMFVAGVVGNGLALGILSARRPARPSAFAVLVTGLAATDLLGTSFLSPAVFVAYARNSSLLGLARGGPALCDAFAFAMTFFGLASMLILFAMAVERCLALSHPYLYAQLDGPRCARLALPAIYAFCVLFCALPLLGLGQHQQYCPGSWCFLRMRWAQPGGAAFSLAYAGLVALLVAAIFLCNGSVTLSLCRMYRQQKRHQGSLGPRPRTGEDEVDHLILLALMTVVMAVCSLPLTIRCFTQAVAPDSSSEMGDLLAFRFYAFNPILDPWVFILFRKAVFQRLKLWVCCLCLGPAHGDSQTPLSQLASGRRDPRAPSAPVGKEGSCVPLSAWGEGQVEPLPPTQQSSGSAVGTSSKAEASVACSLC
Data set [9] is filed under the species Homo sapiens. The experiment in a line: sigma (non-selective) Eurofins-Cerep binding assay. In kind it is protein assay. The following applies: Compound concentration 10.0 uM.
Data set [10] deals with Muscarinic acetylcholine receptor M4 (Homo sapiens) (UniProt P08173). The data set can be described thus: M4 Eurofins-Cerep binding assay. The following applies: Compound concentration 10.0 uM.
For data set [11], the target named is Myeloblastin (Homo sapiens, UniProt P24158). The experiment in a line: PRTN3 inhibition assay.
Chain of Myeloblastin (P24158 whole entry): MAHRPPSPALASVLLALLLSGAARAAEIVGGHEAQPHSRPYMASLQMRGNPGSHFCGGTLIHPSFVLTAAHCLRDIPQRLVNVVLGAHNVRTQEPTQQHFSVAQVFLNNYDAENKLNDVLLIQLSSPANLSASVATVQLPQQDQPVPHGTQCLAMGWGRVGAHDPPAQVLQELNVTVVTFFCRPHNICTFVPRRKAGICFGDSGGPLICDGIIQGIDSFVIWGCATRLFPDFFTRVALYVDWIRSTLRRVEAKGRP
Data set [12] has as its target L-type calcium channel (Cav1.2, alpha-1C), CA+/VERSI/R (Rattus norvegicus, UniProt P22002). The data set can be described thus: Inhibitor of CA+/VERSI/R in the Eurofins SafetyScreen44 (BI) by Radioactive Assay (Old_Cerep_11). More on the design: scale not given: the % may be the effect or the level left. Particulars: compound concentration 10 uM, read-out: % Ctrl.

Data set [13] addresses Cannabinoid receptor 1 (Homo sapiens) (UniProt P21554). The experiment in a line: Activity against CB1/CENTR/H in the Eurofins SafetyScreen44 (BI) by Radioactive Assay (Old_Cerep_12).
The target of data set [14] is Neuropeptide Y receptor type 1 (Homo sapiens) (UniProt P25929). The experiment in a line: Y1 Eurofins-Cerep binding assay. Further details: ligand concentration 0.025 nM. Particulars: Compound concentration 10.0 uM.
Chain of Neuropeptide Y receptor type 1 (Homo sapiens) (P25929 whole entry): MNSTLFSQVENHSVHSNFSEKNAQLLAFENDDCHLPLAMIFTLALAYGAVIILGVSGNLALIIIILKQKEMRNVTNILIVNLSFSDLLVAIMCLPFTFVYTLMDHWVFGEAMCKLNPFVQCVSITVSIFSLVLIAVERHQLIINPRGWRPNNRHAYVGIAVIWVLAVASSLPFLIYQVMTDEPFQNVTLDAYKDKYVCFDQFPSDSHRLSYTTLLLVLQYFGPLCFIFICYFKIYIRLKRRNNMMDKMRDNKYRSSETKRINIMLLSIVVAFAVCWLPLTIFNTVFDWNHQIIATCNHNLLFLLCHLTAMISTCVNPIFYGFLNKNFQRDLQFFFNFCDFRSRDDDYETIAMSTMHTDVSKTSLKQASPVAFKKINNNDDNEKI
Data set [15] deals with Melatonin receptor type 1A (Homo sapiens) (UniProt P48039). The data set can be described thus: MT1 (ML1A) Eurofins-Cerep binding assay. More on the design: ligand concentration 0.01 nM. The following applies: Compound concentration 10.0 uM.
Data set [16] concerns the target D(4) dopamine receptor (Homo sapiens) (UniProt P21917). The data set can be described thus: D4.4 Eurofins-Cerep binding assay. The following applies: Compound concentration 10.0 uM.
Data set [17] deals with C-C chemokine receptor type 1 (Homo sapiens) (UniProt P32246). The data set can be described thus: Activity against CCR1/H in the Eurofins SafetyScreen44 (BI) (Old_Cerep_14). Particulars: Compound concentration 10.0 uM.
Data set [18] has as its target Glutamate NMDA receptor (Rattus norvegicus) (UniProt P35439+Q00959+Q00960+Q00961+Q62645+Q8VHN2+Q9R1M7). The data set can be described thus: PCP Eurofins-Cerep binding assay. In kind it is protein-complex assay. The following applies: Compound concentration 10.0 uM.
For data set [19], the target named is Type-1 angiotensin II receptor (Homo sapiens) (UniProt P30556). The data set can be described thus: AT1 Eurofins-Cerep binding assay.
Chain of Type-1 angiotensin II receptor (Homo sapiens) (P30556 whole entry): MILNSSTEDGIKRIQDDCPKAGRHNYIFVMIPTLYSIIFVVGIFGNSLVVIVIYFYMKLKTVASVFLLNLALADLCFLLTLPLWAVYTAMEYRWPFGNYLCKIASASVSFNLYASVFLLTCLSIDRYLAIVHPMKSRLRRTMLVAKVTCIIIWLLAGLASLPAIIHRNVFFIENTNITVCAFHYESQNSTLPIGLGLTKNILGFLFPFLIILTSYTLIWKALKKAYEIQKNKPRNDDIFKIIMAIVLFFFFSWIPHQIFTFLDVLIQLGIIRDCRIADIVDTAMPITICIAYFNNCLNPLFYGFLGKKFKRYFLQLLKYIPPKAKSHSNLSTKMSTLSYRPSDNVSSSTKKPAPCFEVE
Data set [20] addresses Galanin receptor type 2 (Homo sapiens) (UniProt O43603). The experiment in a line: Inhibitor of GAL2/H in the Eurofins SafetyScreen44 (BI) by Radioactive Assay (Old_Cerep_22). Particulars: Compound concentration 10.0 uM.
Data set [21] deals with P2X purinoceptor (Oryctolagus cuniculus) (UniProt G1U3D6). The experiment in a line: Activity against P2X/R in the Eurofins SafetyScreen44 (BI) by Others (Old_Cerep_29). The following applies: Rattus norvegicus; Compound concentration 10.0 uM.
Chain of P2X purinoceptor (Oryctolagus cuniculus) (G1U3D6 as listed by the source): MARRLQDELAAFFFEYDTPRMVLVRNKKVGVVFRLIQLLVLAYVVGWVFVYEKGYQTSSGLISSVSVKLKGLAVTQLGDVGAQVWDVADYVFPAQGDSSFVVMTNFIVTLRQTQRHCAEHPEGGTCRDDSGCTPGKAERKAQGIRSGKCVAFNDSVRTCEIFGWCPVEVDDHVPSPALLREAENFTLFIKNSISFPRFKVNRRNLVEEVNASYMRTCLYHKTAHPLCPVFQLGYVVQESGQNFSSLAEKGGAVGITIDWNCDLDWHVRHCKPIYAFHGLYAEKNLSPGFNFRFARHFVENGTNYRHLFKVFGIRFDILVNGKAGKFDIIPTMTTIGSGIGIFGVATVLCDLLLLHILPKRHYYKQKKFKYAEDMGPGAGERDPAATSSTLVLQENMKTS
Data set [22] addresses C-X-C chemokine receptor type 2 (Homo sapiens) (UniProt P25025). The experiment in a line: CXCR2 (IL-8B) Eurofins-Cerep binding assay. Particulars: Compound concentration 10.0 uM.
Data set [23] has as its target Adenosine receptor A1 (Homo sapiens) (UniProt P30542). The data set can be described thus: A1 Eurofins-Cerep binding assay. More on the design: ligand concentration 1 nM.
The species entered for data set [24] is Rattus norvegicus. The experiment in a line: BZD (central) Eurofins-Cerep binding assay. The following applies: Compound concentration 10.0 uM.
The target in data set [25] is Galanin receptor type 1 (Homo sapiens) (UniProt P47211). The data set can be described thus: Activity against GAL1/H in the Eurofins SafetyScreen44 (BI) by Radioactive Assay (Old_Cerep_21). Particulars: Compound concentration 10.0 uM.
Data set [26] addresses Muscarinic acetylcholine receptor M5 (Homo sapiens) (UniProt P08912). The experiment in a line: M5 Eurofins-Cerep binding assay. The following applies: Compound concentration 10.0 uM.
Data set [27] concerns the target Endothelin receptor type B (Homo sapiens) (UniProt P24530). The data set can be described thus: Activity against ETB/H in the Eurofins SafetyScreen44 (BI) by Radioactive Assay (Old_Cerep_20). Particulars: Compound concentration 10.0 uM.
For data set [28], the target named is 5-hydroxytryptamine receptor 2C (Homo sapiens) (UniProt P28335). The experiment in a line: Activity against 5HT2C/H in the Eurofins SafetyScreen44 (BI) (Cerep_1003). The following applies: Compound concentration 10.0 uM.
For data set [29], the species on record is Rattus norvegicus. The experiment in a line: Cl-channel (GABA-gated) Eurofins-Cerep binding assay. More on the design: ligand concentration 3 nM. The following applies: Compound concentration 10.0 uM.
In data set [30] the target is Androgen receptor (Homo sapiens) (UniProt P10275). Particulars: Compound concentration 10.0 uM.
Description: Activity against ANDROGEN/H in the Eurofins Cerep SafetyScreen44 (BI) by Radioactive Assay (Cerep_933)
For data set [31], the target named is L-type calcium channel (Cav1.2, alpha-1C), dihydropyridine site (Rattus norvegicus, UniProt P22002). The experiment in a line: Inhibitor of CA+/DHPSI/R in the Eurofins Cerep SafetyScreen44 (BI) by Radioactive Assay (Cerep_161). Type of data set: protein assay. Further details: scale not given: the % may be the effect or the level left. Particulars: rat brain, probe [3H](+)PN200-110, compound concentration 10 uM, read-out: % Ctrl.

In data set [32] the target is Cannabinoid receptor 1 (Homo sapiens) (UniProt P21554). The data set can be described thus: CB1 Eurofins-Cerep binding assay. The following applies: Compound concentration 10.0 uM.
Chain of Cannabinoid receptor 1 (Homo sapiens) (P21554 whole entry): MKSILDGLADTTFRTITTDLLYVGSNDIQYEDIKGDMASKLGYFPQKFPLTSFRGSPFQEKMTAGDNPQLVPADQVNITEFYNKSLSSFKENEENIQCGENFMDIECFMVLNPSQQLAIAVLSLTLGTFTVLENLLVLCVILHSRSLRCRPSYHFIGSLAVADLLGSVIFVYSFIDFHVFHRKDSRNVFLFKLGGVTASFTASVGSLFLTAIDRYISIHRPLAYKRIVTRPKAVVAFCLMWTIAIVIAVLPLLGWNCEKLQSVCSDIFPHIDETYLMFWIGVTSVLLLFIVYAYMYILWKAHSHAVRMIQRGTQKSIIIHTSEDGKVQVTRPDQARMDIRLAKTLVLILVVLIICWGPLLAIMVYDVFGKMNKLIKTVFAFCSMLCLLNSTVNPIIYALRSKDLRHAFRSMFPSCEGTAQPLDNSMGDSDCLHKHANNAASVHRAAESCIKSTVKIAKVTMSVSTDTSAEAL
Data set [33] deals with Tyrosine-protein kinase Lck (Homo sapiens) (UniProt P06239). The experiment in a line: Inhibitor of LCK_CE in the Eurofins Cerep SafetyScreen44 (BI) by lanthanide chelation excitation (Cerep_2906). Particulars: Compound concentration 10.0 uM.
For data set [34], the target named is Kappa-type opioid receptor (Homo sapiens) (UniProt P41145). The data set can be described thus: kappa (KOP) Eurofins-Cerep binding assay. Particulars: Compound concentration 10.0 uM.
Data set [35] deals with Sodium-dependent serotonin transporter (Homo sapiens) (UniProt P31645). The data set can be described thus: 5-HT transporter Eurofins-Cerep binding assay. Further details: ligand concentration 2 nM. Particulars: Compound concentration 10.0 uM.
For data set [36], the species on record is Homo sapiens. The data set can be described thus: Agonist activity in the Eurofins Cerep SafetyScreen44 (BI) against N_NEURO_A4B2 by Radioligand Binding (Cerep_3029). In kind it is protein-complex assay. The following applies: Compound concentration 10.0 uM.
The target of data set [37] is Prostaglandin G/H synthase 2 (Homo sapiens) (UniProt P35354). The data set can be described thus: Inhibitor of COX-2 in the Eurofins Cerep SafetyScreen44 (BI) by Fluorimetry (Cerep_4186). The following applies: Compound concentration 10.0 uM.
For data set [38], the target named is Prostaglandin G/H synthase 1 (Homo sapiens) (UniProt P23219). The experiment in a line: Inhibitor of COX-1 in the Eurofins Cerep SafetyScreen44 (BI) by Fluorimetry (Cerep_4173). Particulars: Compound concentration 10.0 uM.
Chain of Prostaglandin G/H synthase 1 (Homo sapiens) (P23219 whole entry): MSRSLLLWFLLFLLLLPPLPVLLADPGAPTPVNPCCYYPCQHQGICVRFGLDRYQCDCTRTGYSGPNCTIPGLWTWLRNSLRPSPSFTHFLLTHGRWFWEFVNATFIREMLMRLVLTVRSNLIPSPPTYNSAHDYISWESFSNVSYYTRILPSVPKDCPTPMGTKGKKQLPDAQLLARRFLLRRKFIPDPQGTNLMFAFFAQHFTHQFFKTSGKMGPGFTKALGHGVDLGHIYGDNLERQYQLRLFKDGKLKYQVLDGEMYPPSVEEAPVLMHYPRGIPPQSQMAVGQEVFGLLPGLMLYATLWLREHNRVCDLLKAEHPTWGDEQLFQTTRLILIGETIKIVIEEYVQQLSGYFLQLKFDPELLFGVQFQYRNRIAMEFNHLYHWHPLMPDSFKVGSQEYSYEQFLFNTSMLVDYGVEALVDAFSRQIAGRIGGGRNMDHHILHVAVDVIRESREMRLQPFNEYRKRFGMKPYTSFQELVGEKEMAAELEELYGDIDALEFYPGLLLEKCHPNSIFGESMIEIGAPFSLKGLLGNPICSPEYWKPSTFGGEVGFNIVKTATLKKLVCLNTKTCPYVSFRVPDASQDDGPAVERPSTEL

The IC50 is the concentration at which inhibition is half-maximal.

Chain of B2 bradykinin receptor (Homo sapiens) (P30411 whole entry): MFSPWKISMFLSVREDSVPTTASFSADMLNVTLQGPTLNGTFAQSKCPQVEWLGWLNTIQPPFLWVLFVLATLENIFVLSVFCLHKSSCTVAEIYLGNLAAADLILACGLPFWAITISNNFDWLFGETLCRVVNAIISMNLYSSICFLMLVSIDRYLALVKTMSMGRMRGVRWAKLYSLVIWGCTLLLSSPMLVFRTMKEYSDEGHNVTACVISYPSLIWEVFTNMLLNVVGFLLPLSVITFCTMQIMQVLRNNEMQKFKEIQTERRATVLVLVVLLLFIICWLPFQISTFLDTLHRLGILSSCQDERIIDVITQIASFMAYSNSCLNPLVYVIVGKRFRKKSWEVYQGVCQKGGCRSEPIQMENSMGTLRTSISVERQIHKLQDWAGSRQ
Chain of Adenosine receptor A1 (Homo sapiens) (P30542 whole entry): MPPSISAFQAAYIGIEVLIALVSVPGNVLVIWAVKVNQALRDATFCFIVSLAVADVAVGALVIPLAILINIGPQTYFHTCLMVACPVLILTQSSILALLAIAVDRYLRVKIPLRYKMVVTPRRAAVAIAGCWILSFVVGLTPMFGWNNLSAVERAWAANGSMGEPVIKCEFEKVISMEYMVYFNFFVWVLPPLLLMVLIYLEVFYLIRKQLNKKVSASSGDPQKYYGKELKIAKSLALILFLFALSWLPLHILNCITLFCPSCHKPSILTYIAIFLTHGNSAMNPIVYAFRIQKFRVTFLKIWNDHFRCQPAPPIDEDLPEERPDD

In the case of `CC(C)(O)CNC(=O)N1C(=O)N(c2cccc(C(F)(F)F)c2)C2=C(C(=O)CC2)[C@H]1c1ccc(C#N)cc1`, the residual activity was 107% in data set [1] (Compound concentration 10.0 uM); 97% in data set [1] (Compound concentration 30.0 uM); 96% in data set [2]; 95% in data set [3]; 129% in data set [4] (Compound concentration 10.0 uM); 118% in data set [4] (Compound concentration 30.0 uM). Moreover, the residual activity in data set [5] (Compound concentration 10.0 uM) was 100%; in data set [5] (Compound concentration 30.0 uM) it was 93%; in data set [6], 93%; in [7], 114%; in data set [8], 123%; in [9], 72%. Further, the residual activity in data set [10] is 95%; in data set [13] (Compound concentration 10.0 uM), 87%; in [13] (Compound concentration 30.0 uM) it was 93%; in [14], 107%; in data set [15] it was 105%; in data set [16], 98%. For the same molecule, the residual activity in data set [17] was 89%; in data set [18], 104%; in data set [19] (Compound concentration 10.0 uM), 116%; in data set [19] (Compound concentration 30.0 uM) it was 92%; in data set [20] it was 114%; in [21] it was 103%. In addition, the residual activity in [22] was 105%; in [23] (Compound concentration 10.0 uM), 107%; in data set [23] (Compound concentration 30.0 uM) it was 102%; in data set [24], 111%; in data set [25] it was 121%; in data set [26], 92%. The residual activity in data set [27] is 92%; in data set [28] it was 94%; in data set [29] it was 90%. For the same molecule, the 50% inhibitory concentration (IC50) in data set [11] is 367 nM (not active). In addition, in [12], the activity at 10 µM is on record as 102% (not active).
For the molecule `CC(C)(O)CNC(=O)N1C(=O)N(c2cccc(C(F)(F)F)c2)C2=C(C(=O)CC2)[C@@H]1c1ccc(C#N)cc1`, the residual activity in data set [30] was 101%; in data set [32], 88%; in [33], 92%; in [34], 94%; in data set [35], 105%; in [36], 115%. The residual activity in data set [37] was 101%; in data set [38], 105%. The activity at 10 µM in [31] is listed as 104% (not active).
